Measurements: patent publication US9149038B2, “4-amino-6-(heterocyclic)picolinates and 6-amino-2-(heterocyclic)pyrimidine-4-carboxylates and their use as herbicides” (Dow AgroSciences LLC, priority 2013, dated 2015)
Where two headings read alike, the source gives them in different places.

Tested on: Direct Seeded Rice and weed species
Assay: Postemergence herbicidal activity in direct seeded rice, visual rating after 20-22 days and probit GR20/GR50/GR80/GR90 (Table 14)
Assay type: in vivo
Details: for pest or weed control at 17.5 g/ha / pest or weed control at 35 g/ha / pest or weed control at 70 g/ha: post-emergence, 504 h, postemergence; for pest or weed control at 17.5 g/ha: 17.5 g ai/ha; for pest or weed control at 35 g/ha: 35 g ai/ha; for pest or weed control at 70 g/ha: 70 g ai/ha
Summary of the method: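 Rice and weeds grown in loam–sand soil (pH about 8.1) in greenhouse to 2nd–3rd true leaf, then sprayed postemergence at 187 L/ha in acetone/DMSO with 1.25% (v/v) Agri-dex crop oil. Injury rated visually 0–100 after 20-22 days versus untreated plants; GR20, GR50, GR80, GR90 obtained by probit analysis across dose rates.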

[1] = BRAPP (broadleaf signalgrass, Brachiaria platyphylla), read-out: Visual Growth Reduction (%) 21 Days After Application BRAPP
[2] = CYPDI (small-flower flatsedge, Cyperus difformis), read-out: Visual Growth Reduction (%) 21 Days After Application CYPDI
[3] = CYPES (yellow nutsedge, Cyperus esculentus), read-out: Visual Growth Reduction (%) 21 Days After Application CYPES
[4] = CYPIR (rice flatsedge, Cyperus iria), read-out: Visual Growth Reduction (%) 21 Days After Application CYPIR
[5] = DIGSA (large crabgrass, Digitaria sanguinalis), read-out: Visual Growth Reduction (%) 21 Days After Application DIGSA
[6] = ECHCG (barnyardgrass, Echinochloa crus-galli), read-out: Visual Growth Reduction (%) 21 Days After Application ECHCG
[7] = ECHCO (junglerice, Echinochloa colonum), read-out: Visual Growth Reduction (%) 21 Days After Application ECHCO
[8] = LEFCH (Chinese sprangletop, Leptochloa chinensis), read-out: Visual Growth Reduction (%) 21 Days After Application LEFCH
[9] = ORYSJ (Oryza sativa, rice crop), read-out: Visual Growth Reduction (%) 21 Days After Application ORYSJ
[10] = ORYSK (Oryza sativa, rice crop), read-out: Visual Growth Reduction (%) 21 Days After Application ORYSK
[11] = SCPJU (Japanese bulrush, Schoenoplectus juncoides Roxb.), read-out: Visual Growth Reduction (%) 21 Days After Application SCPJU
[12] = SEBEX (hemp sesbania, Sesbania exaltata), given as number, read-out: Visual Growth Reduction (%) 21 Days After Application SEBEX

## Nc1c(F)c(-c2cc3c(cc2F)OC(F)(F)O3)nc(C(=O)O)c1Cl [Compound 13]
BRAPP (Brachiaria platyphylla), probit analysis, dose for 50 percent growth reduction
  GR50 BRAPP: 3 g ai/ha
BRAPP (Brachiaria platyphylla), probit analysis, dose for 80 percent growth reduction
  GR80 BRAPP: 5 g ai/ha
BRAPP (Brachiaria platyphylla), probit analysis, dose for 90 percent growth reduction
  GR90 BRAPP: 7 g ai/ha
CYPDI (Cyperus difformis), probit analysis, dose for 50 percent growth reduction
  GR50 CYPDI: 0.04 g ai/ha
CYPDI (Cyperus difformis), probit analysis, dose for 80 percent growth reduction
  GR80 CYPDI: 1 g ai/ha
CYPDI (Cyperus difformis), probit analysis, dose for 90 percent growth reduction
  GR90 CYPDI: 2 g ai/ha
CYPES (Cyperus esculentus), probit analysis, dose for 50 percent growth reduction
  GR50 CYPES: 0.04 g ai/ha
CYPIR (Cyperus iria), probit analysis, dose for 50 percent growth reduction
  GR50 CYPIR: 0.04 g ai/ha
DIGSA (Digitaria sanguinalis), probit analysis, dose for 50 percent growth reduction
  GR50 DIGSA: 0.05 g ai/ha
DIGSA (Digitaria sanguinalis), probit analysis, dose for 80 percent growth reduction
  GR80 DIGSA: 1 g ai/ha
DIGSA (Digitaria sanguinalis), probit analysis, dose for 90 percent growth reduction
  GR90 DIGSA: 6 g ai/ha
ECHCG (Echinochloa crus-galli), probit analysis, dose for 50 percent growth reduction
  GR50 ECHCG: 0.01 g ai/ha
ECHCG (Echinochloa crus-galli), probit analysis, dose for 80 percent growth reduction
  GR80 ECHCG: 1 g ai/ha
ECHCG (Echinochloa crus-galli), probit analysis, dose for 90 percent growth reduction
  GR90 ECHCG: 10 g ai/ha
ECHCO (Echinochloa colonum), probit analysis, dose for 50 percent growth reduction
  GR50 ECHCO: 1 g ai/ha
ECHCO (Echinochloa colonum), probit analysis, dose for 80 percent growth reduction
  GR80 ECHCO: 3 g ai/ha
ECHCO (Echinochloa colonum), probit analysis, dose for 90 percent growth reduction
  GR90 ECHCO: 6 g ai/ha
LEFCH (Leptochloa chinensis), probit analysis, dose for 50 percent growth reduction
  GR50 LEFCH: 14 g ai/ha
LEFCH (Leptochloa chinensis), probit analysis, dose for 80 percent growth reduction
  GR80 LEFCH: 25 g ai/ha
LEFCH (Leptochloa chinensis), probit analysis, dose for 90 percent growth reduction
  GR90 LEFCH: 33 g ai/ha
ORYSJ (Oryza sativa, rice crop), probit analysis, dose for 20 percent growth reduction
  GR20 ORYSJ: 6 g ai/ha
ORYSK (Oryza sativa, rice crop), probit analysis, dose for 20 percent growth reduction
  GR20 ORYSK: 15 g ai/ha
SCPJU (Schoenoplectus juncoides Roxb.), probit analysis, dose for 50 percent growth reduction
  GR50 SCPJU: 0.0001 g ai/ha
SCPJU (Schoenoplectus juncoides Roxb.), probit analysis, dose for 80 percent growth reduction
  GR80 SCPJU: 0.0001 g ai/ha
SCPJU (Schoenoplectus juncoides Roxb.), probit analysis, dose for 90 percent growth reduction
  GR90 SCPJU: 0.0001 g ai/ha
SEBEX (Sesbania exaltata), probit analysis, dose for 50 percent growth reduction
  GR50 SEBEX: 11 g ai/ha
SEBEX (Sesbania exaltata), probit analysis, dose for 80 percent growth reduction
  GR80 SEBEX: 16 g ai/ha
SEBEX (Sesbania exaltata), probit analysis, dose for 90 percent growth reduction
  GR90 SEBEX: 20 g ai/ha
[1]
  pest or weed control at 17.5 g/ha: 95 to 100%
  pest or weed control at 35 g/ha: 95 to 100%
  pest or weed control at 70 g/ha: 95 to 100%
[2]
  pest or weed control at 17.5 g/ha: 95 to 100%
  pest or weed control at 35 g/ha: 95 to 100%
  pest or weed control at 70 g/ha: 95 to 100%
[3]
  pest or weed control at 17.5 g/ha: 95 to 100%
  pest or weed control at 35 g/ha: 95 to 100%
  pest or weed control at 70 g/ha: 95 to 100%
[4]
  pest or weed control at 17.5 g/ha: 95 to 100%
  pest or weed control at 35 g/ha: 95 to 100%
  pest or weed control at 70 g/ha: 95 to 100%
[5]
  pest or weed control at 17.5 g/ha: 95 to 100%
  pest or weed control at 35 g/ha: 95 to 100%
  pest or weed control at 70 g/ha: 95 to 100%
[6]
  pest or weed control at 17.5 g/ha: 95 to 100%
  pest or weed control at 35 g/ha: 85 to 94%
  pest or weed control at 70 g/ha: 95 to 100%
[7]
  pest or weed control at 17.5 g/ha: 95 to 100%
  pest or weed control at 35 g/ha: 95 to 100%
  pest or weed control at 70 g/ha: 95 to 100%
[8]
  pest or weed control at 17.5 g/ha: 60 to 74%
  pest or weed control at 35 g/ha: 95 to 100%
  pest or weed control at 70 g/ha: 95 to 100%
[9]
  pest or weed control at 17.5 g/ha: 45 to 59%
  pest or weed control at 35 g/ha: 85 to 94%
  pest or weed control at 70 g/ha: 95 to 100%
[10]
  pest or weed control at 17.5 g/ha: 0 to 29%
  pest or weed control at 35 g/ha: 45 to 59%
  pest or weed control at 70 g/ha: 60 to 74%
[11]
  pest or weed control at 17.5 g/ha: 95 to 100%
  pest or weed control at 35 g/ha: 95 to 100%
  pest or weed control at 70 g/ha: 95 to 100%
[12]
  pest or weed control at 17.5 g/ha: 95%
  pest or weed control at 35 g/ha: 100%
  pest or weed control at 70 g/ha: 100%
